# Experimental data published in patent publication US20250268844A1, “ANTICANCER AGENTS BASED ON CYCLOPENTENONES” (UNIVERSITY OF CRETE, priority 2022, published 2025).
# What was measured:
# [1] = system: A2780 ovarian carcinoma cells; test: MTT conversion assay, A2780; format: cell-based, human; conditions: 48 hrs treatment
# Experimental: (§1) In particular, Enone-1 and Enone-2 were tested for cytotoxic activity in 17 cell lines representing a broad spectrum of human tumors. They include human colorectal carcinoma (Caco2, RKO, HCT15, HT29), liver (HepG2), lung (A549), ovarian carcinoma (A2780, 2780CP, AGE60, SKOV3), anaplastic large cell lymphoma (Mac1 and Mac2a), breast carcinoma (MDA-MB-231), cervical (HeLa), bladder cancer (VM-CUB-1), melanoma (BRO), and multiple myeloma (MR20).
# (§2) Each assay was performed in triplicate and repeated in 2-3 independent experiments. Specifically, to measure cell survival, 20 μl of 10 mg/ml MTT (3-([…])-2,5-diphenyl tetrazolium bromide; Sigma) was added to each well and the plates were incubated at 37° C. in 5% CO2 for 3 hours. The supernatant was removed and the formed crystals were dissolved in 200 μl dimethyl sulphoxide. The plates were then analysed at 450 nm on a plate reader. Growth inhibition (reduction in survival) was calculated by expressing the differences in optical densities between treatment wells and control wells as a percentage of the control.
# [2] = system: 2780CP, a cis-platin-resistant derivative of A2780; test: MTT conversion assay, 2780CP; format: cell-based, human; conditions: for IC50: 2780CP, ovarian, cis-platin-resistant, 48 hrs treatment, MTT; for sensitivity of 2780CP cells compared with cis-platin-sensitive A2780 cells: MTT conversion assays
# Experimental: as §1, §2
# Resistance to platinum-based chemotherapy is a major problem in oncology that impacts therapeutic options and limits patient survival. This is relevant to several types of malignancy, including ovarian cancer where platinum resistance frequently occurs. As Enone-1 and 2 show efficacy in reducing survival of A2780 ovarian carcinoma cells, the drugs were also tested in 2780CP, a cis-platin-resistant derivative of A2780 [13].
# [3] = system: SKOV3 ovarian carcinoma cells; test: MTT conversion assay, SKOV3; format: cell-based, human
# Experimental: as §1, §2
# [4] = system: AGE60 ovarian carcinoma cells; test: MTT conversion assay, AGE60; format: cell-based, human; conditions: 48 hrs treatment
# Experimental: as §1, §2
# [5] = system: RKO colorectal carcinoma cells; test: MTT conversion assay, RKO; format: cell-based, human; conditions: colon, 48 hrs treatment
# Experimental: as §1, §2
# [6] = system: HT29 colorectal carcinoma cells; test: MTT conversion assay, HT29; format: cell-based, human; conditions: 48 hrs treatment
# Experimental: as §1, §2
# [7] = system: HCT15 colorectal carcinoma cells; test: MTT conversion assay, HCT15; format: cell-based, human; conditions: 48 hrs treatment
# Experimental: as §1, §2
# HepG2 liver cells = test: MTT conversion assay, HepG2; format: cell-based, human; conditions: 48 hrs treatment
# Experimental: as §1, §2
# A549 lung cells = test: MTT conversion assay, A549; format: cell-based, human; conditions: 48 hrs treatment
# Experimental: as §1, §2
# [8] = system: MDA-MB-231 breast carcinoma cells; test: MTT conversion assay, MDA-MB-231; format: cell-based, human; conditions: 48 hrs treatment
# Experimental: as §1, §2
# [9] = system: MR20 multiple myeloma cells; test: MTT conversion assay, MR20; format: cell-based, human; conditions: 48 hrs treatment
# Experimental: as §1, §2
# [10] = system: HeLa cervical carcinoma cells; test: MTT conversion assay, HeLa; format: cell-based, human; conditions: 48 hrs treatment
# Experimental: as §1, §2
# [11] = system: VM-CUB-1 bladder cancer cells; test: MTT conversion assay, VM-CUB-1; format: cell-based, human; conditions: 48 hrs treatment
# Experimental: as §1, §2
# BRO melanoma cells = test: MTT conversion assay, BRO; format: cell-based, human; conditions: 48 hrs treatment
# Experimental: as §1, §2
# [12] = system: A2780 ovarian cancer cells; test: PrestoBlue cell viability assay; format: cell-based, human; conditions: 72 hrs treatment, n=3 experiments
# Experimental: The effects of Enone-1 and Enone-2 on cancer cells were confirmed using a second methodology, namely the PrestoBlue assay (PrestoBlue™ Cell Viability Reagent, Thermo Fisher, Catalog number: A13261), a cell permeable resazurin-based solution that functions as a cell viability indicator. A2780 ovarian cancer cells were plated as described above for the MTT assays and Enone drugs were added at increasing concentrations as indicated in FIG. 2. Cell viability was determined 72 hrs later following the addition of PrestoBlue, according to the manufacturer's instructions (Thermo Fisher).
# [13] = system: MB49 mouse bladder carcinoma cells; test: MTT assay, MB49; format: cell-based; conditions: 48 hrs
# Experimental: FIG. 5: Effects of enone compounds on mouse tumor growth.
# as §2
# First, the impact of Enone-1 and Enone-2 on the survival of MB49 cells was verified by MTT assays performed as described in FIG. 1.
# p53 [14] = test: p53 immunoblot in A2780 cells; format: cell-based, human; conditions: 2.5 μM or increasing concentrations, 6 hrs or time course
# Experimental: (§3) FIG. 8: Enones induce the p53 pathway. […] Cell lysates were analyzed for p53 and GAPDH (loading control). (B) A2780 cells were cultured in the presence or absence of 2.5 μM for the indicated time points before being analyzed for p53 and GAPDH levels. (C) Treatment of A2780 cells with 2.5 μM Enone-2 results in the up-regulation of p53-regulated genes (*p<0.05; **p<0.01; ***p<0.001, n=4). (D) Induction of p53 accumulation in AGE60 ovarian carcinoma cells following 6 or 14 hr exposure to 2.5 μM Enone-2. (E) Enone-1 induces the p53 pathway in A2780 cells which were cultured in the presence of 2.5 μM of the drug and analyzed as in (B). (F) Treatment of A2780 cells with 2.5 μM Enone-2 results in the up-regulation of p53-regulated genes (*p<0.05; **p<0.01; ***p<0.001, n=3).
# (§4) The effects of Enone-2 on p53 and p53-dependent transcription of cell cycle and cell death-associated genes was confirmed by immunoblotting for p53 and by reverse transcription qPCR (RT-qPCR) for mdm2, p21, bax and bbc3/puma, established p53 target genes.
# γH2Ax = γH2Ax immunoblot (DNA damage response marker) in A2780 cells; format: cell-based, human; conditions: 6 hrs, increasing concentrations, relative to untreated controls
# Experimental: (§5) FIG. 9. […] A2780 cells were cultured for 6 hrs in the presence of drug concentrations as indicated. (B) Effects of siRNA targeting RPL11 (siRPL11), Chek2 (siChek2) or the unrelated luciferase (Luci) genes on RPL11 and Chek2 mRNA levels quantified by RT-PCR. (C) Effects of siRpl11 on Enone-2 and oxaliplatin (OXA)-induced p53 activation. Expression levels relative to GAPDH are indicated; untreated controls (CNT) were given the arbitrary value of 1. […] Expression levels relative to GAPDH are indicated; untreated controls (CNT) were given the arbitrary value of 1.
# p53 [15] = test: siRNA knockdown of Chek2 or Rpl11 and drug-induced p53 activation in A2780 cells; format: cell-based, human; conditions: A2780 transiently transfected with siRNAs
# Experimental: as §5
# To further validate this observation, A2780 cells were transiently transfected with siRNAs targeting Chek2 which is required for DDR-induced p53, or Rpl11 which is required for RS-mediated p53 activation. The efficacy and specificity of the knockdowns were confirmed by RT-qPCR (FIG. 9B).
# [16] = system: Caco-2 colorectal carcinoma cells; test: MTT conversion assay, Caco-2; format: cell-based; conditions: Homo sapiens, Caco-2, colon, 48 hrs treatment
# Experimental: as §1, §2
# [17] = system: mdm2, p21, bax and bbc3/puma; test: RT-qPCR of p53 target genes in A2780 cells; format: cell-based, human; conditions: 2.5 μM
# Experimental: as §3, §4
structure (smiles),measurement,setting,value
"N.N.[Cl][Pt][Cl] [cis-platin, reference compound]",IC50,[1],1.4 µM
same,IC50,[2],10 µM
same,sensitivity of 2780CP cells compared with cis-platin-sensitive A2780 cells,[2],less sensitive
same,IC50,[3]; 48 hrs treatment,4 µM
same,IC50,[4],5 µM
same,IC50,[5],19 µM
same,IC50,"[6]; HT29, colon",13.5 µM
same,IC50,"[7]; HCT15, colon",14 µM
same,IC50,HepG2 liver cells,9 µM
same,IC50,A549 lung cells,7.5 µM
same,IC50,[8],32 µM
same,IC50,[9],~5.8 µM
same,IC50,[9]; listed as Cis-platin,5.8 µM
same,IC50,[10],~31 µM
same,IC50,[10]; listed as Cis-platin,31 µM
same,IC50,[11],7.9 µM
same,IC50,BRO melanoma cells,15.2 µM
same,IC50,[12],1.4 µM
same,IC50,[13],3.8 µM
same,p53 accumulation (immunoblot),p53 [14],less effective
same,γH2Ax induction (marker of DDR),γH2Ax,induced γH2Ax
same,effect of Chek2 or Rpl11 siRNA knockdown on drug-induced p53 activation,p53 [15],Chek2 knockdown ameliorated cis-platin-induced p53 activation
"C[C@@]1(O)C=CC(=O)C1c1ccc2ccccc2c1 (stereo in doubt) [Enone-1, 4-hydroxy-4-methyl-5-(naphthalen-2-yl)cyclopent-2-en-1-one]",IC50,[1]; Homo sapiens,0.6 µM
same,IC50,"[2]; Homo sapiens, A2780",0.75 µM
same,sensitivity of 2780CP cells compared with cis-platin-sensitive A2780 cells,[2],nearly as sensitive
same,sensitivity of 2780CP cells compared with cis-platin-sensitive A2780 cells,[2]; listed as Enone1,remain sensitive
same,IC50,"[3]; Homo sapiens, SK-OV-3, 48 hrs treatment",0.8 µM
same,IC50,"[4]; Homo sapiens, Ovarian carcinoma cell",1 µM
same,IC50,[5]; Homo sapiens,1.3 µM
same,IC50,"[6]; Homo sapiens, HT-29, HT29, colon",1.2 µM
same,IC50,[16],1.8 µM
same,IC50,"[7]; Homo sapiens, HCT-15, HCT15, colon",1.2 µM
same,IC50,HepG2 liver cells; Homo sapiens,3.8 µM
same,IC50,A549 lung cells; Homo sapiens,1.7 µM
same,IC50,"[9]; Homo sapiens, Multiple myeloma cell",0.05 µM
same,IC50,[11]; Homo sapiens,1.2 µM
same,IC50,BRO melanoma cells; Homo sapiens,3.9 µM
same,IC50,[12]; Homo sapiens,0.2 µM
same,IC50,[13],1.4 µM
same,p53 accumulation (immunoblot),p53 [14],induce p53
same,"mdm2, p21, bax and bbc3/puma mRNA (p53-dependent gene expression)",[17],induce p53 and p53-dependent gene expression
"O=C1[O][Pt]2([NH][C@@H]3CCCC[C@H]3[NH]2)[O]C1=O [oxaliplatin, reference compound]",IC50,[12],0.27 µM
same,effect of Chek2 or Rpl11 siRNA knockdown on drug-induced p53 activation,p53 [15],depletion of Rpl11 reduced oxaliplatin-induced p53 accumulation
